Activity calls are given as the source filed them. The rule behind the calls is not given here.
Key:
NCM460 = test: Antiproliferative activity against human NCM460 cells assessed as inhibition of cell growth incubated for 96 hrs by MTT assay; type: functional, cell-based; conditions: NCM460, 96 h
[1] = Inhibition of mitochondrial complex I (unknown origin) incubated for 15 mins by microplate reader analysis; set-up: species or system Homo sapiens
HCT-116 [2] = test: Antiproliferative activity against human HCT-116 cells assessed as inhibition of cell growth incubated for 96 hrs by MTT assay; type: functional, cell-based; conditions: HCT-116, 96 h
HCT-116 [3] = test: Antiproliferative activity against human HCT-116 cells assessed as inhibition of cell growth at 0.1 nM incubated for 96 hrs in presence of galactose by MTT assay; type: functional, cell-based
KG-1 = test: Antiproliferative activity against human KG-1 cells assessed as inhibition of cell growth at 0.1 nM incubated for 96 hrs in presence of galactose by MTT assay; type: functional, cell-based
HCT-116 [4] = test: Induction of mitochondrial dysfunction in human HCT-116 cells assessed as attenuation of ATP coupling oxygen consumption rate incubated for 24 hrs by Seahorse XFe24 analyzer; type: functional, cell-based; conditions: dose 2-10 nM
HCT-116 [5] = test: Induction of ROS generation in human HCT-116 cells at 0.5 nM measured for 30 mins by DCFDA-staining based flow cytometry analysis; type: functional, cell-based
[6] = Acute toxicity in BALB/c mouse assessed as decrease in behavioral activity at 68 mg/kg, ip measured for 6 days; type: organism-based; conditions: in vivo, 144 h, time 6 day
[7] = Acute toxicity in BALB/c mouse assessed as decrease in body weight at 40 mg/kg, ip measured for 24 hrs; type: organism-based; conditions: in vivo
[8] = Acute toxicity in BALB/c mouse assessed as effect on ALB level at 68 mg/kg, ip measured on day 14; type: organism-based; conditions: in vivo, 336 h, time 14 day
[9] = Acute toxicity in BALB/c mouse assessed as effect on BILT level at 68 mg/kg, ip measured on day 14; type: organism-based; conditions: in vivo, 336 h, time 14 day
[10] = Acute toxicity in BALB/c mouse assessed as effect on ALP level at 68 mg/kg, ip measured on day 14; type: organism-based; conditions: in vivo, 336 h, time 14 day
[11] = Acute toxicity in BALB/c mouse assessed as effect on GLU level at 68 mg/kg, ip measured on day 14; type: organism-based; conditions: in vivo, 336 h, time 14 day
[12] = Acute toxicity in BALB/c mouse assessed as effect on RBC level at 68 mg/kg, ip measured on day 14; type: organism-based, Erythrocyte; conditions: in vivo, 336 h, time 14 day
[13] = Acute toxicity in BALB/c mouse assessed as effect on NEUT level at 68 mg/kg, ip measured on day 14; type: organism-based; conditions: in vivo, 336 h, time 14 day
[14] = Acute toxicity in BALB/c mouse assessed as liver damage at 40 to 68 mg/kg, ip measured on day 14 by H and E staining based analysis; type: organism-based; conditions: in vivo, 336 h, dose 40-68 mg/kg, time 14 day
[15] = Acute toxicity in BALB/c mouse assessed as animal death at 116 mg/kg, ip measured on day 14; type: organism-based; conditions: in vivo, time 14 day, read-out: Activity
[16] = Acute toxicity in ip dosed BALB/c mouse assessed as maximum tolerated dose measured on day 14; type: organism-based; conditions: in vivo, time 14 day
[17] = Toxicity in NOD-SCID mouse xenografted with human KG-1 cells assessed as change in body weight at 5 mg/kg, ip qd administered 5 consecutive days per week for 24 days; type: organism-based; conditions: in vivo, 576 h, time 24 day
[18] = Toxicity in NOD-SCID mouse xenografted with human KG-1 cells assessed as effect on AST level at 5 mg/kg, ip qd administered 5 consecutive days per week for 24 days; type: organism-based; conditions: in vivo, 576 h, time 24 day
[19] = Toxicity in NOD-SCID mouse xenografted with human KG-1 cells assessed as effect on BILT level at 5 mg/kg, ip qd administered 5 consecutive days per week for 24 days; type: organism-based; conditions: in vivo, 576 h, time 24 day
[20] = Toxicity in NOD-SCID mouse xenografted with human KG-1 cells assessed as effect on CREA level at 5 mg/kg, ip qd administered 5 consecutive days per week for 24 days; type: organism-based; conditions: in vivo, 576 h, time 24 day
[21] = Toxicity in NOD-SCID mouse xenografted with human KG-1 cells assessed as effect on GLB level at 5 mg/kg, ip qd administered 5 consecutive days per week for 24 days; type: organism-based; conditions: in vivo, 576 h, time 24 day
[22] = Toxicity in NOD-SCID mouse xenografted with human KG-1 cells assessed as effect on GLU level at 5 mg/kg, ip qd administered 5 consecutive days per week for 24 days; type: organism-based; conditions: in vivo, 576 h, time 24 day
[23] = Toxicity in NOD-SCID mouse xenografted with human KG-1 cells assessed as effect on HDL level at 5 mg/kg, ip qd administered 5 consecutive days per week for 24 days; type: organism-based; conditions: in vivo, 576 h, time 24 day
[24] = Toxicity in NOD-SCID mouse xenografted with human KG-1 cells assessed as effect on LDL level at 5 mg/kg, ip qd administered 5 consecutive days per week for 24 days; type: organism-based; conditions: in vivo, 576 h, time 24 day
[25] = Toxicity in NOD-SCID mouse xenografted with human KG-1 cells assessed as effect on TRIGL level at 5 mg/kg, ip qd administered 5 consecutive days per week for 24 days; type: organism-based; conditions: in vivo, 576 h, time 24 day
[26] = Toxicity in NOD-SCID mouse xenografted with human KG-1 cells assessed as effect on UREA level at 5 mg/kg, ip qd administered 5 consecutive days per week for 24 days; type: organism-based; conditions: in vivo, 576 h, time 24 day
[27] = Toxicity in NOD-SCID mouse xenografted with human KG-1 cells assessed as effect on neutrophil count at 5 mg/kg, ip qd administered 5 consecutive days per week for 24 days; type: organism-based; conditions: in vivo, 576 h, time 24 day
[28] = Toxicity in NOD-SCID mouse xenografted with human KG-1 cells assessed as effect on lymphocyte count at 5 mg/kg, ip qd administered 5 consecutive days per week for 24 days; type: organism-based; conditions: in vivo, 576 h, time 24 day
[29] = Toxicity in NOD-SCID mouse xenografted with human KG-1 cells assessed as effect on HGB count at 5 mg/kg, ip qd administered 5 consecutive days per week for 24 days; type: organism-based; conditions: in vivo, 576 h, time 24 day
[30] = Toxicity in NOD-SCID mouse xenografted with human KG-1 cells assessed as effect on hematocrit level at 5 mg/kg, ip qd administered 5 consecutive days per week for 24 days; type: organism-based; conditions: in vivo, 576 h, time 24 day
[31] = Toxicity in NOD-SCID mouse xenografted with human KG-1 cells assessed as effect on MCV level at 5 mg/kg, ip qd administered 5 consecutive days per week for 24 days; type: organism-based; conditions: in vivo, 576 h, time 24 day
[32] = Toxicity in NOD-SCID mouse xenografted with human KG-1 cells assessed as effect on MCH level at 5 mg/kg, ip qd administered 5 consecutive days per week for 24 days; type: organism-based; conditions: in vivo, 576 h, time 24 day
[33] = Toxicity in NOD-SCID mouse xenografted with human KG-1 cells assessed as effect on RDV at 5 mg/kg, ip qd administered 5 consecutive days per week for 24 days; type: organism-based; conditions: in vivo, 576 h, time 24 day
[34] = Toxicity in NOD-SCID mouse xenografted with human KG-1 cells assessed as effect on heart damage at 5 mg/kg, ip qd administered 5 consecutive days per week for 24 days by H and E staining based analysis; type: organism-based; conditions: in vivo, 576 h, time 24 day
Cytochrome P450 3A4 = Cytochrome P450 3A4 (Homo sapiens, UniProt P08684); test: Inhibition of CYP3A4 in human liver microsomes incubated for 5 mins in presence of NADPH by LC/MS/MS analysis; type: ADME, Microsome
Cytochrome P450 3A4, sequence (P08684 whole entry): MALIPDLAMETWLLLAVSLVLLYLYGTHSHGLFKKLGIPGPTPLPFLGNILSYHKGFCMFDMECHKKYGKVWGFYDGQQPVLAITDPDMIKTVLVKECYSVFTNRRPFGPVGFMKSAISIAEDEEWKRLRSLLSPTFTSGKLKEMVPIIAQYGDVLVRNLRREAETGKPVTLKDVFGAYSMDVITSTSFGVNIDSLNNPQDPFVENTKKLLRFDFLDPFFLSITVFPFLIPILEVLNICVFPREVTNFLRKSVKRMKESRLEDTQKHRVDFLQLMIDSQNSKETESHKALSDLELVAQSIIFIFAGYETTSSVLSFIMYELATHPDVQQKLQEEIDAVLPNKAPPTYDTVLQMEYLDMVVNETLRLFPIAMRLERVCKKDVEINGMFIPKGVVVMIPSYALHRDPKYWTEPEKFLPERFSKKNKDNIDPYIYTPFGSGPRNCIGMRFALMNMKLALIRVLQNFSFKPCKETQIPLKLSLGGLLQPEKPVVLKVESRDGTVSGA

SMILES: Cc1cc(C(=O)Nc2ccc(OC(F)(F)F)cc2)nn1Cc1cccc(N2CCN(C(=O)C3CC3)CC2)c1
- IC50 (NCM460): > 1000 nM
- IC50 [1]: 1140 nM
- IC50 (HCT-116 [2]): 1.02 nM
- Activity (HCT-116 [3]): Active
- Activity (KG-1): Active
- Activity (HCT-116 [4]): Dose-Dependent Effect
- Activity (HCT-116 [5]): Active
- Activity [6]: Non-Toxic
- Activity [7]: Non-Toxic
- Activity [8]: Non-Toxic
- Activity [9]: Non-Toxic
- Activity [10]: Non-Toxic
- Activity [11]: Non-Toxic
- Activity [12]: Non-Toxic
- Activity [13]: Non-Toxic
- Activity [14]: Non-Toxic
- mortality at 336 h [15]: 33.3%
- MTD at 336 h [16]: ~6 mg/kg
- Activity [17]: Non-Toxic
- Activity [18]: Non-Toxic
- Activity [19]: Non-Toxic
- Activity [20]: Non-Toxic
- Activity [21]: Non-Toxic
- Activity [22]: Non-Toxic
- Activity [23]: Non-Toxic
- Activity [24]: Non-Toxic
- Activity [25]: Non-Toxic
- Activity [26]: Non-Toxic
- Activity [27]: Non-Toxic
- Activity [28]: Non-Toxic
- Activity [29]: Non-Toxic
- Activity [30]: Non-Toxic
- Activity [31]: Non-Toxic
- Activity [32]: Non-Toxic
- Activity [33]: Non-Toxic
- Activity [34]: Non-Toxic
- IC50 (Cytochrome P450 3A4): 6990 nM

SMILES: Cc1cc(C(=O)Nc2ccc(C(F)(F)F)cc2)nn1Cc1cccc(N2CCN(C(=O)C3CC3)CC2)c1
- IC50 (NCM460): > 1000 nM
- IC50 [1]: 830 nM
- IC50 (HCT-116 [2]): 0.52 nM
- Activity (HCT-116 [3]): Active
- Activity (KG-1): Active
- Activity (HCT-116 [4]): Dose-Dependent Effect
- Activity (HCT-116 [5]): Active
- Activity [6]: Non-Toxic
- Activity [7]: Non-Toxic
- Activity [8]: Non-Toxic
- Activity [9]: Non-Toxic
- Activity [10]: Non-Toxic
- Activity [11]: Non-Toxic
- Activity [12]: Non-Toxic
- Activity [13]: Non-Toxic
- Activity [14]: Non-Toxic
- mortality at 336 h [15]: 33.3%
- MTD at 336 h [16]: ~6 mg/kg
- Activity [17]: Non-Toxic
- Activity [18]: Non-Toxic
- Activity [19]: Non-Toxic
- Activity [20]: Non-Toxic
- Activity [21]: Non-Toxic
- Activity [22]: Non-Toxic
- Activity [23]: Non-Toxic
- Activity [24]: Non-Toxic
- Activity [25]: Non-Toxic
- Activity [26]: Non-Toxic
- Activity [27]: Non-Toxic
- Activity [28]: Non-Toxic
- Activity [29]: Non-Toxic
- Activity [30]: Non-Toxic
- Activity [31]: Non-Toxic
- Activity [32]: Non-Toxic
- Activity [33]: Non-Toxic
- Activity [34]: Non-Toxic
- IC50 (Cytochrome P450 3A4): 7480 nM

From ChEMBL document CHEMBL5620406, “Synthesis and biological evaluation of novel pyrazole amides as potent mitochondrial complex I inhibitors” (Eur J Med Chem, 2023)
